Reference: PMC7340268, “Structural definition of polyspecific compensatory ligand recognition by P-glycoprotein” (IUCrJ, 2020)
Entries after “also recorded” stand apart in the source; their conditions may differ. Marks after values point to notes of the source that are not given here.

Key:
[1] = biological target: Pgp (PDB entry 4xwk) (Mus musculus, UniProt P21447); assay: Authors' own occupancy refinement of the published Pgp-BDE-100 structure; assay type: binding; details: own refinement using the deposited structure factors
Text: X-ray diffraction data were collected at 100 K on beamline 23-ID-D at the Advanced Photon Source (APS). MAD scans were obtained from Pgp–BDE-100 co-crystals near the Br K edge to optimize for the strongest anomalous signal at the beginning of each data-collection session and whenever data were collected from a new mutant. The data were processed, integrated and scaled with HKL-2000 (Otwinowski & Minor, 1997[▸]). The Pgp structures were solved by molecular replacement using the previously solved BDE-100 complex structure (PDB entry 4xwk; Nicklisch et al., 2016[▸]) without the BDE-100 (Table 1 ▸) using an initial rigid-body refinement of the two pseudosymmetric halves of the protein. […] Phenix.elbow was used to produce ligand description dictionaries (Adams et al., 2010[▸]) and the placement of BDE-100 was verified by anomalous scattering of the Br atoms and OMIT density (see Fig. 1 ▸ for top views, Supplementary Fig. S1 for side views and Supplementary Fig. S2 for ligand F o − F c OMIT maps) calculated via CNS (Brünger et al., 1998[▸]). […] All models were subjected to rigid-body, xyz, group B-factor and individual B-factor refinement using phenix.refine (Afonine et al., 2010[▸]) and the model geometry was monitored using MolProbity (Chen et al., 2010[▸]) in the absence of the ligand. […] Figures were prepared and r.m.s.d.s were calculated in PyMOL (version 1.8; Schrödinger). […]

[2] = system: Pgp C952A control and the five aromatic replacement mutants (Y303A, Y306A, F724A, F728A, F979A); assay: Effect of BDE-100 on basal and verapamil-stimulated ATPase activity; assay type: biochemical, mouse; details: BDE-100 at 50, 75 and 100 µM
Experimental: Figure 3 The effect of BDE-100 on the verapamil-stimulated ATPase activity of the six Pgp mutations. […]. The level of BDE-100 inhibition of the verapamil-stimulated ATPase EC50 for each mutant is also shown. P values were determined from a two-tailed unequal variance test: ****, p ≤ 0.0001; ***, p ≤0.0001–0.001; *, p ≤0.05–0.01. […]
(Figure 4) were chosen to yield a more finely sampled dose response for this figure. BDE-100 alone had little effect on Pgp ATPase activity. Inhibitory effects of BDE-100 at 50 µM, 75 µM and 100 µM on the Verapamil-EC50 specific to each mutant were determined. All measurements were determined with seven independent measurements (n=7).
(1 picture or pasted object on this page, not shown here)

[3] = biological target: T1, Pgp C952A/F979A (Mus musculus, UniProt P21447, C952A/F979A); assay: Co-crystal structure, occupancy refinement of BDE-100; assay type: binding
T1 construct: 6xHis (C); made in house; host or cells: Pichia pastoris
Experimental: (§1) To reproduce the binding of BDE-100 to Pgp and maintain crystal isomorphism, we utilized the reductive-methylation protocol of Ward et al. (2013[▸]) with some modifications. Fresh dimethylamine–borane (20 mM; Sigma–Aldrich) and 16% formaldehyde (40 mM; Thermo Scientific) were added to 1–3 mg mouse Pgp. The mixture was incubated for 2 h at 4°C and further dimethylamine–borane and formaldehyde were added after 2 h. After incubation for 16 h at 4°C, the reaction was quenched with cold glycine on ice for 2 h and flushed with SEC buffer (10 mM Tris–HCl pH 7.5, 75 mM NaCl, 0.0375% DDM, 0.04% sodium cholate, 0.1 mM TCEP). The eluted protein was concentrated to 2–3 mg ml^−1 and incubated with 0.5 mM BDE-100 (AccuStandard) dissolved in DMSO in the dark for 16 h at 4°C. The precipitate was centrifuged and the extracted sample was […] 1:10 in SEC buffer to give a final concentration of 10–13 mg ml^−1. Crystallization was set up using 3 µl sitting drops in 24-well Cryschem plates (Hampton Research) with a 1:1 ratio of protein solution and reservoir solution [0.1 M HEPES, 50 mM lithium sulfate, 10 mM EDTA, 26–28.5%(w/v) polyethylene glycol (PEG) 600 pH 7.9–8.4]. Crystals could be visualized after ∼3 days at 4°C and reached full size in ∼4 weeks.
(§2) X-ray diffraction data were collected at 100 K on beamline 23-ID-D at the Advanced Photon Source (APS). MAD scans were obtained from Pgp–BDE-100 co-crystals near the Br K edge to optimize for the strongest anomalous signal at the beginning of each data-collection session and whenever data were collected from a new mutant. The data were processed, integrated and scaled with HKL-2000 (Otwinowski & Minor, 1997[▸]). The Pgp structures were solved by molecular replacement using the previously solved BDE-100 complex structure (PDB entry 4xwk; Nicklisch et al., 2016[▸]) without the BDE-100 (Table 1 ▸) using an initial rigid-body refinement of the two pseudosymmetric halves of the protein. Subsequent rounds included the full molecule with chains linked including ligands. Phenix.elbow was used to produce ligand description dictionaries (Adams et al., 2010[▸]) and the placement of BDE-100 was verified by anomalous scattering of the Br atoms and OMIT density (see Fig. 1 ▸ for top views, Supplementary Fig. S1 for side views and Supplementary Fig. S2 for ligand F o − F c OMIT maps) calculated via CNS (Brünger et al., 1998[▸]). The structures agreed with the previously solved structure as our control mutant (C952A) contained BDE-100 in the same position based on experimental data. All models were subjected to rigid-body, xyz, group B-factor and individual B-factor refinement using phenix.refine (Afonine et al., 2010[▸]) and the model geometry was monitored using MolProbity (Chen et al., 2010[▸]) in the absence of the ligand. The BDE-100 atoms were then modeled and the structures were subjected to the same refinement steps including occupancy refinement using an occupancy of 0.5 as the starting point. […] We conclude there is a sufficient data-to-parameter ratio to refine both B factors and occupancy for the BDE-100 ligand in PDB entry 4xwk as well as in all of our structures. Our own refinement of PDB entry 4xwk yielded a ligand occupancy of 0.66 and our control mutant C952A agreed very well, with a refined occupancy of 0.67 (for a full list, see Table 2 ▸). The refined occupancy values for ligands also agreed very well with the intensities of their respective anomalous difference Fourier electron densities. Data statistics and parameters supporting the quality of the structures are presented in Table 1 ▸ and Supplementary Table S1. Figures were prepared and r.m.s.d.s were calculated in PyMOL (version 1.8; Schrödinger). […]

[4] = biological target: T2, Pgp C952A/F728A (Mus musculus, UniProt P21447, C952A/F728A); assay: as above; assay type: binding
T2 construct: 6xHis (C); made in house; host or cells: Pichia pastoris
Experimental: as §1, §2

[5] = biological target: T3, Pgp C952A/Y303A (Mus musculus, UniProt P21447, C952A/Y303A); assay: as above; assay type: binding
T3 construct: 6xHis (C); made in house; host or cells: Pichia pastoris
Experimental: as §1, §2

[6] = biological target: T4, Pgp C952A/F724A (Mus musculus, UniProt P21447, C952A/F724A); assay: as above; assay type: binding
T4 construct: 6xHis (C); made in house; host or cells: Pichia pastoris
Experimental: as §1, §2

[7] = biological target: T5, Pgp C952A (Mus musculus, UniProt P21447, C952A); assay: as above; assay type: binding
T5 construct: 6xHis (C); made in house; host or cells: Pichia pastoris
Experimental: as §1, §2

[8] = biological target: T6, Pgp C952A/Y306A (Mus musculus, UniProt P21447, C952A/Y306A); assay: as above; assay type: binding
T6 construct: 6xHis (C); made in house; host or cells: Pichia pastoris
Experimental: as §1, §2

[9] = system: wild-type Pgp; design: method as in Nicklisch et al., 2016; details: ref Nicklisch et al., 2016, cited from earlier work

T3 sequence (P21447 whole entry Y303A/C952A): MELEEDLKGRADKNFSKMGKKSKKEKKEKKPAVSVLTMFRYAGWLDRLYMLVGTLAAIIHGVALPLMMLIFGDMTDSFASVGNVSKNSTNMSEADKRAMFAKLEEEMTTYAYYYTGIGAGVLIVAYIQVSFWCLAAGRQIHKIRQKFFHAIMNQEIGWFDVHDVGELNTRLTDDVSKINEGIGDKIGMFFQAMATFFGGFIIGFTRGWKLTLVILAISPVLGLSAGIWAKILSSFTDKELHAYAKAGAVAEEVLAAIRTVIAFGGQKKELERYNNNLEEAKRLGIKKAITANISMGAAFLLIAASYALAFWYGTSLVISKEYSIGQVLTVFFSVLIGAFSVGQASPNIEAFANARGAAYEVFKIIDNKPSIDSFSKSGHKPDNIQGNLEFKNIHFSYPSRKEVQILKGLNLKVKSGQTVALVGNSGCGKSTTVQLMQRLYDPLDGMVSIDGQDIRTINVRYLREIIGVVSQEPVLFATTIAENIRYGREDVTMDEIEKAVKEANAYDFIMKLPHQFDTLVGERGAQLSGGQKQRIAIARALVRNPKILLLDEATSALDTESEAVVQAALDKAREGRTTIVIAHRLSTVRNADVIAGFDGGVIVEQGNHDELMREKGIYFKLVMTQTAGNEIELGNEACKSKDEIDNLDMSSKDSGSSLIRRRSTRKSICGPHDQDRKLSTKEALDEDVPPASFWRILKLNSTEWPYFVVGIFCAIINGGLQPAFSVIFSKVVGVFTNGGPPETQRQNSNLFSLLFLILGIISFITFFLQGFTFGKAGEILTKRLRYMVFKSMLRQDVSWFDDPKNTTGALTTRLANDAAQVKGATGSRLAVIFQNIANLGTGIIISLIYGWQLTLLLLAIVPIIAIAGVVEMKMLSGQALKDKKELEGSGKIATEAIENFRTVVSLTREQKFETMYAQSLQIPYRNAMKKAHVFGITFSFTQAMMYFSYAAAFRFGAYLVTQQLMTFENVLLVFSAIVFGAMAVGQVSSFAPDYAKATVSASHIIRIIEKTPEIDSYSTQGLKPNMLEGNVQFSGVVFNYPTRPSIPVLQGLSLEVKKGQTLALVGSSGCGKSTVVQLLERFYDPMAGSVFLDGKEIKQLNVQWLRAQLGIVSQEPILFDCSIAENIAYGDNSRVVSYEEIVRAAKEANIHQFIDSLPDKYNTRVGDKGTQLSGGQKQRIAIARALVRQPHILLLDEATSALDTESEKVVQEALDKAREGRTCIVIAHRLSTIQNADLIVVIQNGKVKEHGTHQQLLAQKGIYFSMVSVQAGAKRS
Pgp (PDB entry 4xwk), sequence (P21447 whole entry): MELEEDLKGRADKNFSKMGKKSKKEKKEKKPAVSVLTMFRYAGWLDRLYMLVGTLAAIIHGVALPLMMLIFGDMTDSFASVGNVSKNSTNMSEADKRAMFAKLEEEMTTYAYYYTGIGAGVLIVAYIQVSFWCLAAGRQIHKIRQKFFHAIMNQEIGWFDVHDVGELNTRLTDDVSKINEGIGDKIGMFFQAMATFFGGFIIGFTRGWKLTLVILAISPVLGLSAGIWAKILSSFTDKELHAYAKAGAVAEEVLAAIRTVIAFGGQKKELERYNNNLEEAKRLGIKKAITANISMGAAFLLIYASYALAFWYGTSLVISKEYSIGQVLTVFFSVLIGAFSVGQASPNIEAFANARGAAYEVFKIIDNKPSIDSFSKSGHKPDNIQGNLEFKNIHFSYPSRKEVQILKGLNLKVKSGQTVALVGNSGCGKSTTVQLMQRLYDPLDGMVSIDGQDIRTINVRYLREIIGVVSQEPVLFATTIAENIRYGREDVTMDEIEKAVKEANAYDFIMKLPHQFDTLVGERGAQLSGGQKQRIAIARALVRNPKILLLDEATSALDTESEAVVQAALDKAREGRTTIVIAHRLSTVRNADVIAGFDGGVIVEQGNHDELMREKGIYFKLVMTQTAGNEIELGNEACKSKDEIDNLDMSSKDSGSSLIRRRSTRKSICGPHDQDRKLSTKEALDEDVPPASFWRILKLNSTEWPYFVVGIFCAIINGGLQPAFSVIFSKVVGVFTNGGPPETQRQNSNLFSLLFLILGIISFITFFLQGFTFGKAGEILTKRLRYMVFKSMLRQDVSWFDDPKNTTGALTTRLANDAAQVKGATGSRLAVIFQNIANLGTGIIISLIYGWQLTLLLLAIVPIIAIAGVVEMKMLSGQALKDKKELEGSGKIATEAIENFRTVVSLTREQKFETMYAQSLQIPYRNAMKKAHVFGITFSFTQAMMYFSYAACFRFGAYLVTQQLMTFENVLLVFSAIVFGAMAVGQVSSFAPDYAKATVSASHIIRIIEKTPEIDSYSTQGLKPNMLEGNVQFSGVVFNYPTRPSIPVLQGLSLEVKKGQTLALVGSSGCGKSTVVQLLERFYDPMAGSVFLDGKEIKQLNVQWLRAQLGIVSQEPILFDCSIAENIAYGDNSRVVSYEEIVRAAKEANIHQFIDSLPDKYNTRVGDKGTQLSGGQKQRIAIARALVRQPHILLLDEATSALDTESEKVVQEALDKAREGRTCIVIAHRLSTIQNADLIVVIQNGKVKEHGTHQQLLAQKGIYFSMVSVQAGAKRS
T6 sequence (P21447 whole entry Y306A/C952A): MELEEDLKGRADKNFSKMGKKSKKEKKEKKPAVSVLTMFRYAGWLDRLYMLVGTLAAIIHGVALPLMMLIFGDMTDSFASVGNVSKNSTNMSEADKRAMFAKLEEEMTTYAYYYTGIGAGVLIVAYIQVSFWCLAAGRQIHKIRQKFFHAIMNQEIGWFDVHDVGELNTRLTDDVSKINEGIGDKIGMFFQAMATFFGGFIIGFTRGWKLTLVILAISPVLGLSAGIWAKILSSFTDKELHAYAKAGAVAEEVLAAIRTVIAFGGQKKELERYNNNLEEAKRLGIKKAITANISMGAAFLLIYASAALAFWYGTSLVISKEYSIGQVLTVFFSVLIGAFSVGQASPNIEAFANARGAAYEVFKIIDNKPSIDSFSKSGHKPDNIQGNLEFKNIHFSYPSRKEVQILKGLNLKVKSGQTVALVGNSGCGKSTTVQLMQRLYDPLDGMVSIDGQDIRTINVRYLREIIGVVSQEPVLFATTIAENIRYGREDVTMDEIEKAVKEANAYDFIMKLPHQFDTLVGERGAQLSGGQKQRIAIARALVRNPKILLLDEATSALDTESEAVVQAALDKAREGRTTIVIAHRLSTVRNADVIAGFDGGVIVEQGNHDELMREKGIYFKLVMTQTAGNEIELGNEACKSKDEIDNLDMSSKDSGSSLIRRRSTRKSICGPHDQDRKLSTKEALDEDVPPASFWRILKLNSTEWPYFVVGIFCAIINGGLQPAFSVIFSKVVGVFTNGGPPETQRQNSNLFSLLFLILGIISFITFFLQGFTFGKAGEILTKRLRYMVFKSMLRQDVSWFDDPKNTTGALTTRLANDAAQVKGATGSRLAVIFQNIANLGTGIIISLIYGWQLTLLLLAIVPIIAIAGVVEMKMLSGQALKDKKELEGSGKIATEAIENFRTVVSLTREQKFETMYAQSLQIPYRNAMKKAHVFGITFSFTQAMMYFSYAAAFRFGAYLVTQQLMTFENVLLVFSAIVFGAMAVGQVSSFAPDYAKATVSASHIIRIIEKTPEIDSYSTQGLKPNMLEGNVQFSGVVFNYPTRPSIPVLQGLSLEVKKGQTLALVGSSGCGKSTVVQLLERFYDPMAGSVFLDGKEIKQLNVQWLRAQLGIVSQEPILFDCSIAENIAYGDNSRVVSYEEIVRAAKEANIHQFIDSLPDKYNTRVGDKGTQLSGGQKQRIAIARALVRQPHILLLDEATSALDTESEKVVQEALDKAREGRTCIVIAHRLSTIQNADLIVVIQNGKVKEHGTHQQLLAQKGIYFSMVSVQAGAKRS
T2 sequence (P21447 whole entry F728A/C952A): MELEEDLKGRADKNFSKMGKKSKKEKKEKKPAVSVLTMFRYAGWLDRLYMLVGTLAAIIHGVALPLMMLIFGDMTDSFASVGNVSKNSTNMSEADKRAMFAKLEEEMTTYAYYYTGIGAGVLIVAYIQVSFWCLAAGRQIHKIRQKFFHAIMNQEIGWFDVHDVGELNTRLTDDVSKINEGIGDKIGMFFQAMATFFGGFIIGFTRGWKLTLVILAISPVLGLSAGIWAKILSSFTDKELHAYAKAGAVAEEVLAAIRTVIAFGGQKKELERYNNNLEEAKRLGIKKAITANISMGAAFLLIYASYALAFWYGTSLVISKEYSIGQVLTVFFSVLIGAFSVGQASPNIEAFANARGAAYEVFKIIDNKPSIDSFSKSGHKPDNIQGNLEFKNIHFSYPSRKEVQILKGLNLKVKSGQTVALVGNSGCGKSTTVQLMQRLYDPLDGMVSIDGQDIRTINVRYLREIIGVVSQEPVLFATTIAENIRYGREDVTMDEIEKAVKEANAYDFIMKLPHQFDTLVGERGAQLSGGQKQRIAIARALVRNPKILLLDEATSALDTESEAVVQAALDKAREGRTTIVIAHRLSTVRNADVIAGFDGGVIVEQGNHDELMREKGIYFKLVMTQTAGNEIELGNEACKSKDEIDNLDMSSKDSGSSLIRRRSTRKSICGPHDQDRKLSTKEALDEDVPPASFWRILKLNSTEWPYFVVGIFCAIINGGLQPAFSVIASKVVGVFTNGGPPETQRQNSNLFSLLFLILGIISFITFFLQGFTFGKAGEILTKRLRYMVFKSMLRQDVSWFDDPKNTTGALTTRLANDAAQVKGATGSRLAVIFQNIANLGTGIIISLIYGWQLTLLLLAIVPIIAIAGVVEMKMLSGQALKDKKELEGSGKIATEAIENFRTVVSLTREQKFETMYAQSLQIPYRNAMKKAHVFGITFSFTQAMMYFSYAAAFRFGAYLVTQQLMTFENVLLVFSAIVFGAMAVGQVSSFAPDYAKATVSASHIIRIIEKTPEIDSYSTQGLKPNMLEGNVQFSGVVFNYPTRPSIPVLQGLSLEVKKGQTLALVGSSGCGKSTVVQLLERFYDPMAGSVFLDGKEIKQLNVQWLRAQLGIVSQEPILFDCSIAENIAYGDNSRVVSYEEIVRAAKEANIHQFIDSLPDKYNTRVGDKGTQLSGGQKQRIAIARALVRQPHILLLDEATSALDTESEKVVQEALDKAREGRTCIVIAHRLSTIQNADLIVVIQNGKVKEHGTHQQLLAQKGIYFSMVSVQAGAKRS

In the case of `Brc1ccc(Oc2c(Br)cc(Br)cc2Br)c(Br)c1` [BDE-100], the “Occupancy of BDE-100, site 1” value [1] is reported as 66%, the “Refined ligand occupancy, site 1” value ([1]; as fraction) is reported as 0.66 and the “Effect of BDE-100 alone on basal ATPase activity” value ([2]; absence of verapamil, C952A control and five mutants) is reported as “did not increase the basal ATPase activity; also recorded: little effect”. For the same compound, the “Effect of BDE-100 on verapamil-stimulated ATPase activity” value ([2]; at the verapamil EC50 determined for each mutant) was “inhibited; also recorded: significant inhibitory effect”, the “Occupancy of BDE-100, site 1” value [3] was 65% and the “Occupancy of BDE-100, site 1 (designated site 1A)” value [4] was 53 ^† %. The “Occupancy of BDE-100, site 2” value [4] was 48%, the “Occupancy of BDE-100, site 1” value [5] was 64% and the “Occupancy of BDE-100, site 2” value [5] was 56%. The “Occupancy of BDE-100, site 3” value [6] was 35%, the “Occupancy of BDE-100, site 1” value ([7]; C952A) was 67% and the “Refined ligand occupancy, site 1” value ([7]; C952A control, as fraction) was 0.67. For the same compound, the “Occupancy of BDE-100, site 1” value [8] was 68%, the “Occupancy of BDE-100, site 2” value [8] was 49% and the “Inhibition of verapamil-stimulated ATPase activity” value [9] was “potent inhibitor”. For the same compound, the “Effect of BDE-100 alone on basal ATPase activity” value ([9]; wild-type Pgp) was “did not increase the basal ATPase activity”.
